Assay [1] has as its system intraocular pressure. Nature of the assay: Test for intraocular pressure reduction using cynomolgus monkeys. In kind it is in vivo. Particulars: male cynomolgus monkeys; for Maximum intraocular pressure reduction degree: 0.1% (w/v) test liquid instilled into one eye twice a day for 7 days, maximum over 2, 4, 6, 8 h after administration (Compound B: pH 7, 1, 2, 4, 6 h), average of 5 to 6 cases. The method, then: In order to examine the usefulness of the present compound as a preventive or therapeutic agent for glaucoma or ocular hypertension, an intraocular pressure lowering effect when the present compound was administered to cynomolgus monkeys (sex: male) was evaluated and studied. As the test compound, Compound A, Compound B, Compound C, Compound D, Compound E, Compound F, Compound G, Compound H and Compound I were used.
1) Just before a test liquid was administered, one drop of 0.4% oxybuprocaine hydrochloride eye drop was instilled into both eyes of each experimental animal to achieve local anesthesia, and the intraocular pressure was measured using an applanation tonometer. This intraocular pressure was determined as an initial intraocular pressure.
2) A 0.1% (w/v) test liquid (a solution or suspension) was prepared, and the test liquid was instilled into one eye of each experimental animal twice a day for 7 days. The other eye was left untreated, or a vehicle was instilled into the eye according to the same schedule. Incidentally, the test liquid was prepared according to the preparation method for an eye drop described above. Specifically, to 10 mM phosphate buffer or 1.7% borate buffer, polysorbate 80 and any of the test compounds were added and dissolved or dispersed therein. Then, the pH of the resulting solution or dispersion was adjusted to 5 with sodium hydroxide and/or dilute hydrochloric acid, whereby a test liquid containing each test compound was prepared (only in the case of Compound B, the pH of the test liquid was adjusted to 7).
3) After the test liquid was administered, the intraocular pressure of both eyes of each experimental animal was measured at predetermined times (at 2, 4, 6, and 8 hours after administration) (only in the case of Compound B, the intraocular pressure was measured at 1, 2, 4 and 6 hours after administration). Incidentally, before measurement, one drop of 0.4% oxybuprocaine hydrochloride eye drop was instilled into both eyes of each experimental animal to achieve local anesthesia.
The intraocular pressure reduction degree of each test compound administration group at each measurement time was calculated from the following calculation formula. Among the obtained intraocular pressure reduction degrees at respective measurement times, the maximum value was determined as a maximum intraocular pressure reduction degree.
Intraocular pressure reduction degree(mmHg)=|IOP (D−t)−IOP(D−0)| Equation 1
IOP (D-t): Intraocular pressure of the eye into which the test compound was administered at t hours after administration of test compound IOP (D-0): Initial intraocular pressure of the eye into which the test compound was administered

The test system of assay [2] is intraocular pressure. Briefly: Test for intraocular pressure reduction using Japanese white rabbits. In kind it is in vivo. The following applies: male Japanese white rabbits; for Intraocular pressure reduction degree: single dose into one eye, at 2 or 4 hours after instillation at which the pressure decreased most, average of 5 to 6 cases; for intraocular pressure lowering action (in words): single instillation, 0.003 to 0.2% (w/v) depending on compound. How it is done:
In order to examine the usefulness of the present compound as a preventive or therapeutic agent for glaucoma or ocular hypertension, an intraocular pressure lowering effect when the present compound was administered to Japanese white rabbits (sex: male) was evaluated and studied. As the test compound, Compound A, Compound B, Compound C, Compound E, Compound I and Compound J were used. According to the preparation method for an eye drop described above, each test liquid containing Compound A (0.003% (w/v)), Compound B (0.2% (w/v)), Compound C (0.01% (w/v)), Compound E (0.01% (w/v)), Compound I (0.01% (w/v)) or Compound J (0.01% (w/v)) was prepared. Specifically, to 10 mM phosphate buffer or 1.7% borate buffer, polysorbate 80 and any of the test compounds were added and dissolved or dispersed therein. Then, the pH of the resulting solution or dispersion was adjusted to 5 with sodium hydroxide and/or dilute hydrochloric acid, whereby a test liquid containing each test compound was prepared (only in the case of Compound B, the pH of the test liquid was adjusted to 7). 1) Just before any of the test liquids was administered, one drop of 0.4% oxybuprocaine hydrochloride eye drop was instilled into both eyes of each experimental animal to achieve local anesthesia, and the intraocular pressure was measured using an applanation tonometer. This intraocular pressure was determined as an initial intraocular pressure. 2) Any of the prepared test liquids was administered into one eye of each experimental animal in a single dose. The other eye was left untreated, or a vehicle was instilled into the eye according to the same schedule. 3) After the test liquid was administered, the intraocular pressure of both eyes of each experimental animal was measured at predetermined times (at […] after administration). Incidentally, before measurement, one drop of 0.4% oxybuprocaine hydrochloride eye drop was instilled into both eyes of each experimental animal to achieve local anesthesia. The intraocular pressure reduction degree of each test compound administration group at each measurement time was calculated from the following calculation formula. Intraocular pressure reduction degree (mmHg)=|IOP (Ad−t)−IOP(Ad−0) Equation 2 IOP (Ad-t): Intraocular pressure of the eye into which the test compound was administered at t hours after administration of test compound IOP (Ad-0): Initial intraocular pressure of the eye into which the test compound was administered

Consider `COC(=O)N1CCC(CC#Cc2nc(N)c3ncn([C@@H]4O[C@H](C(=O)NC5CC5)[C@@H](O)[C@H]4O)c3n2)CC1` [Compound A, 4-{3-[6-amino-9-((2R,3R,4S,5S)-5-cyclopropylcarbamoyl-3,4-dihydroxytetrahydrofuran-2-yl)-9H-purin-2-yl]-2-propynyl}-piperidine-1-carboxylic acid methyl ester], for which the “intraocular pressure lowering action (in words)” value in the assay on intraocular pressure [1] (0.1% (w/v) instilled twice a day for 7 days) and in the assay on intraocular pressure [2] was “significantly higher intraocular pressure lowering action among the present compounds” each time. The “lowering of trough intraocular pressure by repeated instillation (in words)” value in the assay on intraocular pressure [1] (0.1% (w/v) repeated instillation (BID)) is on record as “exhibited a high lowering action”. In addition, in the assay on intraocular pressure [1] (0.1% (w/v) repeated instillation (BID) for 7 days, difference from vehicle group), the “trough intraocular pressure value on day 7, lower than that in the vehicle administration group” value is listed as 1.0 mmHg. In addition, the “Maximum intraocular pressure reduction degree” value in the assay on intraocular pressure [1] is listed as 4.9 mmHg. For the same compound, in the assay with intraocular pressure [2] (0.003% (w/v) test liquid), the “Intraocular pressure reduction degree” value is reported as 3.8 mmHg.
For `Nc1nc(C#CCC2CCN(C(=O)OC3CCC3)CC2)nc2c1ncn2[C@@H]1O[C@H](C(=O)NC2CC2)[C@@H](O)[C@H]1O` [Compound J, 4-{3-[6-amino-9-((2R,3R,4S,5S)-5-cyclopropylcarbamoyl-3,4-dihydroxytetrahydrofuran-2-yl)-9H-purin-2-yl]-2-propynyl}-piperidine-1-carboxylic acid cyclobutyl ester], in the assay with intraocular pressure [2] (0.01% (w/v) test liquid), the “Intraocular pressure reduction degree” value is 4.1 mmHg. The “intraocular pressure lowering action (in words)” value in the assay with intraocular pressure [2] was “significantly higher intraocular pressure lowering action among the present compounds”.
As to `CCNC(=O)[C@H]1O[C@@H](n2cnc3c(N)nc(C#CCC4CCN(C(=O)OC)CC4)nc32)[C@H](O)[C@@H]1O` [Compound C, 4-{3-[6-amino-9-((2R,3R,4S,5S)-5-ethylcarbamoyl-3,4-dihydroxytetrahydrofuran-2-yl)-9H-purin-2-yl]-2-propynyl}-piperidine-1-carboxylic acid methyl ester], in the assay with intraocular pressure [1], the “Maximum intraocular pressure reduction degree” value was determined as 2.7 mmHg. In the assay with intraocular pressure [2] (0.01% (w/v) test liquid), the “Intraocular pressure reduction degree” value came to 2.8 mmHg.
Take `COc1ccc(OC(=O)N2CCC(CC#Cc3nc(N)c4ncn([C@@H]5O[C@H](C(=O)NC6CC6)[C@@H](O)[C@H]5O)c4n3)CC2)cc1` [Compound H, 4-{3-[6-amino-9-((2R,3R,4S,5S)-5-cyclopropylcarbamoyl-3,4-dihydroxytetrahydrofuran-2-yl)-9H-purin-2-yl]-2-propynyl}-piperidine-1-carboxylic acid 4-methoxyphenyl ester]: the “Maximum intraocular pressure reduction degree” value with intraocular pressure [1] came to 2.3 mmHg.
Take `CCNC(=O)[C@H]1O[C@@H](n2cnc3c(N)nc(C#CCC4CCC(C(=O)OC)CC4)nc32)[C@H](O)[C@@H]1O` (stereo partly drawn) [Compound B, 4-{3-[6-amino-9-((2R,3R,4S,5S)-5-ethylcarbamoyl-3,4-dihydroxytetrahydrofuran-2-yl)-9H-purin-2-yl]-2-propynyl}-cyclohexane-1-carboxylic acid methyl ester]: in the assay on intraocular pressure [1], the “Maximum intraocular pressure reduction degree” value is reported as 2.2 mmHg. Further, in the assay on intraocular pressure [2] (0.2% (w/v) test liquid (pH 7)), the “Intraocular pressure reduction degree” value is recorded as 2.1 mmHg.
For `COc1ccccc1OC(=O)N1CCC(CC#Cc2nc(N)c3ncn([C@@H]4O[C@H](C(=O)NC5CC5)[C@@H](O)[C@H]4O)c3n2)CC1` [Compound G, 4-{3-[6-amino-9-((2R,3R,4S,5S)-5-cyclopropylcarbamoyl-3,4-dihydroxytetrahydrofuran-2-yl)-9H-purin-2-yl]-2-propynyl}-piperidine-1-carboxylic acid 2-methoxyphenyl ester], the “Maximum intraocular pressure reduction degree” value with intraocular pressure [1] was determined as 2.7 mmHg.
Take `Nc1nc(C#CCC2CCN(C(=O)Oc3ccc(F)c(F)c3)CC2)nc2c1ncn2[C@@H]1O[C@H](C(=O)NC2CC2)[C@@H](O)[C@H]1O` [Compound I, 4-{3-[6-amino-9-((2R,3R,4S,5S)-5-cyclopropylcarbamoyl-3,4-dihydroxytetrahydrofuran-2-yl)-9H-purin-2-yl]-2-propynyl}-piperidine-1-carboxylic acid 3,4-difluorophenyl ester]: the “Maximum intraocular pressure reduction degree” value in the assay on intraocular pressure [1] was 1.8 mmHg. For the same compound, the “Intraocular pressure reduction degree” value in the assay on intraocular pressure [2] (0.01% (w/v) test liquid) was found to be 1.7 mmHg.
For the compound `CCNC(=O)[C@H]1O[C@@H](n2cnc3c(N)nc(C#CCC4CCN(C(=O)OC(C)C)CC4)nc32)[C@H](O)[C@@H]1O` [Compound E, 4-{3-[6-amino-9-((2R,3R,4S,5S)-5-ethylcarbamoyl-3,4-dihydroxytetrahydrofuran-2-yl)-9H-purin-2-yl]-2-propynyl}-piperidine-1-carboxylic acid isopropyl ester], the “Maximum intraocular pressure reduction degree” value in the assay with intraocular pressure [1] came out at 2.9 mmHg. The “Intraocular pressure reduction degree” value in the assay with intraocular pressure [2] (0.01% (w/v) test liquid) was 2.6 mmHg.
As for `CCNC(=O)[C@H]1O[C@@H](n2cnc3c(N)nc(C#CCC4CCN(C(=O)OCC)CC4)nc32)[C@H](O)[C@@H]1O` [Compound D, 4-{3-[6-amino-9-((2R,3R,4S,5S)-5-ethylcarbamoyl-3,4-dihydroxytetrahydrofuran-2-yl)-9H-purin-2-yl]-2-propynyl}-piperidine-1-carboxylic acid ethyl ester], the “Maximum intraocular pressure reduction degree” value in the assay with intraocular pressure [1] amounted to 2.9 mmHg.
`Nc1nc(C#CCC2CCN(C(=O)Oc3ccc(F)cc3)CC2)nc2c1ncn2[C@@H]1O[C@H](C(=O)NC2CC2)[C@@H](O)[C@H]1O` [Compound F, 4-{3-[6-amino-9-((2R,3R,4S,5S)-5-cyclopropylcarbamoyl-3,4-dihydroxytetrahydrofuran-2-yl)-9H-purin-2-yl]-2-propynyl}-piperidine-1-carboxylic acid 4-fluorophenyl ester]: the “Maximum intraocular pressure reduction degree” value with intraocular pressure [1] stood at 2.7 mmHg.

The record behind these values is patent US20130109646A1, “METHOD FOR TREATING GLAUCOMA OR OCULAR HYPERTENSION WITH AN ADENOSINE DERIVATIVE” (priority 2007, published 2013).
